Literature values in patent US20090004049A1, “Method of irradiation using process of adding vitamin C” (priority 2007, published 2009).

Test system: patients with cancer
Details: 10 g of vitamin C administered to patients with cancer

## O=C1O[C@H]([C@@H](O)CO)C(O)=C1O [vitamin C]
  increase of survival rate of patients compared with control: 4 times
